Measurements reported in patent US20230150929A1, “SELECTIVE NON-CYCLIC NUCLEOTIDE ACTIVATORS FOR THE CAMP SENSOR EPAC1” (The Board of Regents of The University of Texas System, priority 2020, published 2023).

Tests used:
[1] = test system: PKA; test: PKA activation (VASP phosphorylation, western blot) in U2OS-EPAC1 cells; assay type: cell-based; conditions: 100 µM test compound, FIG. 5
Protocol: FIG. 5. PKA activation results of representative newly discovered EPAC1 agonists. U2OS cells stably transfected with EPAC1 were treated with 100 µM of test compounds, cyclic nucleotide EPAC1 agonist 2 or 10 µM of forskolin and rolipram (F/R), cyclic AMP elevating agents, as a positive control. Active, phosphorylated VASP (P-VASP) was visualized using a phospho-specific, anti-VASP antibody. None of the test compounds promoted VASP phosphorylation in cells.
PKA and GPCR Selectivity. To investigate the EPAC selectivity of these EPAC agonists, compounds 25g, 25n and 25q were selected for further PKA activation studies, and the results are shown in FIG. 5. PKA activation was assessed by monitoring phosphorylation state of a downstream PKA effector, vasodilator-stimulated phosphoprotein (VASP).
(§1) SDS-PAGE and Western Blotting. Samples were prepared by mixing equal volumes of cell lysate and 2x SDS sample loading buffer and denaturing for 5 min at 95° C., unless indicated otherwise. Protein samples were separated by SDS-PAGE on 10% (v/v) polyacrylamide gels, for EPAC1 and VASP, or on 12.5% (v/v), for Rap1, and then transferred to nitrocellulose membranes. Membranes were then blocked for 1 h at room temperature in 5% (w/v) non-fat dry milk or 5% (w/v) BSA in Tris-buffered saline containing 0.1% (v/v) Tween 20, followed by an overnight incubation with primary antibody diluted in blocking buffer at 4° C. Subsequently, the membranes were incubated with appropriate horseradish peroxidase-conjugated secondary antibodies for 1 h at room temperature. For signal detection the SuperSignal West Pico PLUS Chemiluminescent Substrate (Thermo Scientific) was used. Images were acquired using the Fusion FX7 camera platform (Vilber). Densitometry was performed with ImageJ.

[2] = molecular target: T1, EPAC1 (Homo sapiens, UniProt O95398); test: Active Rap1 pull-down in U2OS cells stably transfected with EPAC1; assay type: cell-based; parameters: expressed in transfected cells; host or cells: U2OS cells (from Professor Holger Rehmann, University of Utrecht); conditions: for Rap1 activation in EPAC1 cells: U2OS-EPAC1, 100 µM compound, 10 min, FIG. 7; for activation of EPAC1 by compound 2 (Rap1-GTP levels): U2OS-EPAC1 cells, in the presence of EPAC1 agonist 2 (007), FIG. 4
T1 sequence (O95398 1-923): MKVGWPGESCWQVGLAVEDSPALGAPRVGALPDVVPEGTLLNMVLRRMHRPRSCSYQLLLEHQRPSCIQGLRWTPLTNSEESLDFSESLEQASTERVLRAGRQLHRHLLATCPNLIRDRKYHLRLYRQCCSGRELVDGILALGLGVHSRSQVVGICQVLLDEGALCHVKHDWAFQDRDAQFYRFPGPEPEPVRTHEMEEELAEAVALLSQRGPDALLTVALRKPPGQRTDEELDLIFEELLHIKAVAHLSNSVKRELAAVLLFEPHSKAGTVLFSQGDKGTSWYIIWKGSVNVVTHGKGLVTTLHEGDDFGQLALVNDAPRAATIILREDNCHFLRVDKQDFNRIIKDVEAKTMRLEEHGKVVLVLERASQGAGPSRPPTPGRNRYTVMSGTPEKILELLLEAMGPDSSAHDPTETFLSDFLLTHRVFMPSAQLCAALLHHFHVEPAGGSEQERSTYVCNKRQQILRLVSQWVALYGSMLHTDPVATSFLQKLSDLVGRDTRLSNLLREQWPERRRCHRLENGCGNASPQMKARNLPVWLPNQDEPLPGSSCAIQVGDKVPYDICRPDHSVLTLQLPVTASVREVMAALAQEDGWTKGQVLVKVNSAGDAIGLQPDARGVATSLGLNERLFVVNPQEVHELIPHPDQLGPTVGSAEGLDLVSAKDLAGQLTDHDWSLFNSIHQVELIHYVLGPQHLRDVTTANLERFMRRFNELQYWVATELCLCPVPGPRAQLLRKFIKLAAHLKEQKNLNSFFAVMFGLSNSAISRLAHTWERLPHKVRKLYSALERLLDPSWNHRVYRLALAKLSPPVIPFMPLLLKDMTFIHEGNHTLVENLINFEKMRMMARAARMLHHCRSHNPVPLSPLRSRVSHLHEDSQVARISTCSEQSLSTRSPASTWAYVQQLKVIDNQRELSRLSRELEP
Protocol: Series Expansion and EPAC1 vs EPAC2 Selectivity. GEF assay was used to further screen all newly synthesis analogues at 10 µM, to identify additional activating compounds to expand the series of EPAC1 agonists (FIG. 6). […] Having now identified an expanded exemplary series of compounds as potential EPAC1 activators the ability of 25e, 25f, 25g, 25n and 25u to activate EPAC1 and EPAC2 in cellular Rap1 activation assays (FIG. 7) were compared. For these U2OS cells transfected with either EPAC1 or EPAC2 (FIG. 7) was used. […] Densitometry was carried out on all immunoblots and the ratio of EPAC1 to EPAC2 activation was calculated and presented in a bar graph in FIG. 8.
Active Rap1 Pull-down. U2OS cells (from Professor Holger Rehmann, University of Utrecht) stably transfected with EPAC1 or EPAC2 were cultured in 6-well plates in DMEM, high glucose, supplemented with 10% (v/v) FBS, 1% (v/v) GlutaMAX, 1% (v/v) Penicillin-Streptomycin and 2 mg/l puromycin (to ensure selection of stable transfectants). 80% confluent cells were starved in culture medium with reduced FBS concentration (0.5 %) for 16 h and then stimulated for 10 min with either vehicle, 100 µM of studied compounds, or 50 µM of 2 in case of U2OS-EPAC1 or 100 µM of compound 4 for U2OS-EPAC2. Cells were then rinsed with ice-cold PBS and lysed in 0.5 ml cell lysis buffer (Cell Signaling Technologies) supplemented with 10 mM MgCl2 and 1 mM PMSF, followed by clearing the lysates by centrifugation. Cell lysates were incubated for 1 h (4° C., gentle agitation) with 40 µg GST-RalGDS-RBD immobilized on Glutathione Sepharose 4B (GE Healthcare) to selectively capture GTP-bound Rap1. Later on, the glutathione resin was separated from supernatant by centrifugation, washed three times with cell lysis buffer, then resuspended in 2x SDS sample loading buffer and denatured for 5 min at 95° C.
as §1

[3] = test system: over 40 GPCR targets; test: Counter screening over a panel of GPCR targets; assay type: binding; conditions: panel of over 40 GPCR proteins
[4] = molecular target: T1, EPAC1; test: Protein stability of EPAC1 in cells following long-term exposure; assay type: cell-based; parameters: expressed in transfected cells; host or cells: U2OS cells (from Professor Holger Rehmann, University of Utrecht); conditions: compared with I942

| SMILES | PKA activation (VASP phosphorylation) [1] | Rap1 activation in EPAC1 cells [2] | activation of EPAC1 by compound 2 (Rap1-GTP levels) [2] | off-target effects towards GPCR proteins [3] | tolerability in terms of protein stability of EPAC1 in cells [4] |
| --- | --- | --- | --- | --- | --- |
| COc1ccc(S(=O)(=O)NC(=O)COc2ccc3ccccc3c2)c(OC)c1 [Compound 25g, N-((2,4-Dimethoxyphenyl)sulfonyl)-2-(naphthalen-2-yloxy)acetamide] | did not induce any PKA activation | activate EPAC1 in cells | enhanced |  |  |
| COc1ccc2ccc(OCC(=O)NS(=O)(=O)c3ccc(N)cc3OC)cc2c1 [Compound 25n, N-((4-Amino-2-methoxyphenyl)sulfonyl)-2-((7-methoxynaphthalen-2-yl)oxy)acetamide] | did not induce any PKA activation | activate EPAC1 in cells | enhanced | none of them displays the potential off-target effects | better tolerated |
| COc1ccc2ccc(OCC(=O)NS(=O)(=O)c3ccc4ccccc4c3)cc2c1 [Compound 25q, 2-((7-Methoxynaphthalen-2-yl)oxy)-N-(naphthalen-2-ylsulfonyl)acetamide] | did not induce any PKA activation | activate EPAC1 in cells |  | none of them displays the potential off-target effects |  |
